Source: US11369127B2, “Sweetener and flavor compositions, methods of making and methods of use thereof” (EPC Natural Products Co., Ltd., priority 2018, dated 2022)
“Also recorded” adds a separate entry of the source.

Tests used:
[1] = Kinetics of reaction in dependence of pH-conditions (degradation of Phe and Reb-A, Gluc, Xyl, Suc by HPLC/MS)
Protocol: Quantitative evaluation was performed using external standardization.
Kinetics of Reaction in Dependence of pH-Conditions

[2] = Sensory evaluation of GSGs and SGs, Thaumatin, NHDC and combinations (Ex. 255); set-up: species or system human; conditions: in water; 4.5 ppm Thaumatin and/or 50 ppm GSGs and SGs, NHDC 1-5 ppm
Protocol: 4.5 ppm Thaumatin (equivalent to 10 ppm EPCalin) was dissolved in water. Increasing amounts of NHDC (1-5 ppm) were added to the solution and the sensory properties were evaluated.
50 ppm (GSGs and SGs) were dissolved in water. Increasing amounts of NHDC (1-5 ppm) were added to the solution and the sensory properties were evaluated.
50 ppm (GSGs and SGs) and 4.5 ppm Thaumatin (equivalent to 10 ppm EPCalin) were dissolved in water. Increasing amounts of NHDC (1-5 ppm) were added to the solution and the sensory properties were evaluated.
Sweetness intensity was rated on 5-point scale

[3] = Stevia-derived MRPs with NHDC and Thaumatin, also in Redbull sugarfree (Ex. 261); set-up: species or system human; conditions: 150 μl sample in 100 ml Redbull sugar free
Protocol: 150 μl of the each sample was added to 100 ml Redbull sugar free and mixed. The taste profiles of the samples were compared. As a control, a RedBull sugar free sample without the addition of Steviaroma was used.
Before tasting the tasters discussed the upcoming series of samples and tasted samples with predetermined attributes with varying intensities to find a commonality in description. Four trained tasters blind taste tested independently all samples of a series. They were allowed to re-taste and made notes for the sensory attributes perceived including the relative intensity.
In the last step the attributes noted were discussed openly to find an acceptable description. In case that more than 1 taster disagreed with the description, the tasting was repeated.

[4] = DPPH radical-scavenging activity (Ex. 65); assay type: biochemical; conditions: iron-III reduction and DPPH radical scavenging (FIG. 49, 50); 100° C., 0-5 hours
Protocol: 1 mg 1,1-Diphenyl-2-picrylhydrazyl radical (DPPH)/ml ethanol, dilution to assay concentration were prepared in ethanol (40 μg/mL); Calibration samples were prepared with Ascorbic acid in a concentration of 0-10 μg/mL; as a negative control sample, water was used.
Samples in aqueous solution were used as such or diluted with water.
A 0.1 ml sample (or calibration standard) was mixed with 3.9 ml solution of DPPH (100 μMolar) and reacted while protected from light at room temperature for 30 min. Absorbance was determined at 517 nm against ethanol.
10 mM of amino acid and/or 10 mM sugar were dissolved in 10 ml 0.1 mM KH2PO4-buffer, pH=7.8.
The samples were kept at 100° C. in sealed glass vials (Pyrex 15 ml with screw caps) for 0 (before reaction), 2.5 or 5.0 hours. Thereafter the samples were transferred to an ice water bath and cooled down to room temperature. These samples were diluted 1:10 and used for the test assay for anti-oxidant potential.

For `O=C(O)[C@H](Cc1ccccc1)NCC(=O)[C@@H](O)[C@H](O)[C@H](O)CO` [MRI (Phe-Glu)], the “% formation from degraded Phe” value ([1]; pH = 5.5) was less than 0.10%, the “% formation from degraded Phe” value ([1]; pH = 7.0) was 0.54% and the “% formation from degraded Phe” value ([1]; pH = 8.5) was 0.84%.

For `COc1ccc(CCC(=O)c2c(O)cc(O[C@@H]3O[C@H](CO)[C@@H](O)[C@H](O)[C@H]3O[C@@H]3O[C@@H](C)[C@H](O)[C@@H](O)[C@H]3O)cc2O)cc1O` [NHDC, Neohesperidin dihydrochalcone], the “sensory properties of combinations with NHDC” value [2] was “long lasting lingering; also recorded: boosts the lingering” and the “taste profile in sugarfree beverage” value [3] was “improved the mouth-feel and harmony of taste impression yielding a substantially improved taste profile”.

In the case of `C=C1C[C@@]23CC[C@H]4[C@@](C)(CCC[C@@]4(C)C(=O)O[C@@H]4O[C@H](CO)[C@@H](O)[C@H](O)[C@H]4O)[C@@H]2CC[C@]1(O[C@@H]1O[C@H](CO)[C@@H](O)[C@H](O[C@@H]2O[C@H](CO)[C@@H](O)[C@H](O)[C@H]2O)[C@H]1O[C@@H]1O[C@H](CO)[C@@H](O)[C@H](O)[C@H]1O)C3` [Reb-A, Rebaudioside A], the anti-oxidant properties [4] is reported as “substantial anti-oxidant properties”.
